15 compounds from US20260130925A1, “METHODS FOR TREATING CANCER” (Genesis Molecular AI, Inc., priority 2022, published 2026) can be followed below.

Some results are limits rather than exact numbers.

In test [1] the target is T1, PI3Kα H1047R in T47D cells (Homo sapiens, UniProt P42336, H1047R).
T1 construct: endogenous in cells; host or cells: T47D
As to the kind of experiment: PI3Kα cellular assay: T47D pAKT S473 HTRF. The test is classed as cell-based. The conditions noted are these: for T47D pAKT S473 HTRF IC50 (H1047R): T47D (H1047R) selectivity over SKBR3 (WT): T47D (H1047R) versus SKBR3 (WT) cells; for IC50: T47D cells (H1047R), serum starved, 1 hr compound, 20 ng/ml EGF 10 min. As for the experimental part:
PI3Kα cellular assay experimental procedure: SKBR3 or T47D cells are seeded in DMEM containing 10% FBS at 25 k cells/well into 96-well cell culture format. Cells are incubated overnight at 37° C. in a 5% CO2 incubator and the following day cell media is aspirated, adherent cells are washed 1× with room temperature PBS prior to serum-free media application. Cells are returned to 37° C. 5% CO2 incubator and incubated a further 16 hrs. Compounds are added to serum starved adherent cells with a top dose of 10,000 nM and 3× multiple dose reductions for a minimum dose of 0.5 nM diluted in DMSO. Cell/compound incubation continues for 1 hr in a 37° C., 5% CO2 incubator prior to 10 minute PIK3CA stimulation with 20 ng/ml EGF. Cells treated with 0.1% DMSO and 20 ng/mL EGF are employed as negative control, cells treated with 10 uM Alpelisib and 20 ng/mL EGF are employed as a positive control. After 10 mins, plates are removed from incubator and cells are lysed with buffer and shaking 45 minutes. 20 μL of lysate is transferred to an opti-384 plate and 2.5 μl of Phospho-AKT d2 antibody with 2.5 μl of Phospho-AKT Eu Cryptate solution in the detection buffer are added to each well. 384 well plate is left overnight at room temperature before reading HTRF on an Envision plate reader.
(In general: In TR-FRET formats the signal depends on donor and acceptor labels being close together.)

In the next test the target is PI3K H1047R (Homo sapiens, UniProt P42336, H1047R). As to the kind of experiment: PI3K H1047R ADP-Glo (PI/PS). As to conditions: for IC50: PI/PS substrate. Further details: PI3K H1047R ADP-Glo (PI/PS) IC50: H1047R Selectivity: reference not given here. It is filed as biochemical. Background: ADP-Glo turns the ADP formed in a reaction into a luminescent signal.
Chain of PI3K H1047R (P42336 whole entry H1047R): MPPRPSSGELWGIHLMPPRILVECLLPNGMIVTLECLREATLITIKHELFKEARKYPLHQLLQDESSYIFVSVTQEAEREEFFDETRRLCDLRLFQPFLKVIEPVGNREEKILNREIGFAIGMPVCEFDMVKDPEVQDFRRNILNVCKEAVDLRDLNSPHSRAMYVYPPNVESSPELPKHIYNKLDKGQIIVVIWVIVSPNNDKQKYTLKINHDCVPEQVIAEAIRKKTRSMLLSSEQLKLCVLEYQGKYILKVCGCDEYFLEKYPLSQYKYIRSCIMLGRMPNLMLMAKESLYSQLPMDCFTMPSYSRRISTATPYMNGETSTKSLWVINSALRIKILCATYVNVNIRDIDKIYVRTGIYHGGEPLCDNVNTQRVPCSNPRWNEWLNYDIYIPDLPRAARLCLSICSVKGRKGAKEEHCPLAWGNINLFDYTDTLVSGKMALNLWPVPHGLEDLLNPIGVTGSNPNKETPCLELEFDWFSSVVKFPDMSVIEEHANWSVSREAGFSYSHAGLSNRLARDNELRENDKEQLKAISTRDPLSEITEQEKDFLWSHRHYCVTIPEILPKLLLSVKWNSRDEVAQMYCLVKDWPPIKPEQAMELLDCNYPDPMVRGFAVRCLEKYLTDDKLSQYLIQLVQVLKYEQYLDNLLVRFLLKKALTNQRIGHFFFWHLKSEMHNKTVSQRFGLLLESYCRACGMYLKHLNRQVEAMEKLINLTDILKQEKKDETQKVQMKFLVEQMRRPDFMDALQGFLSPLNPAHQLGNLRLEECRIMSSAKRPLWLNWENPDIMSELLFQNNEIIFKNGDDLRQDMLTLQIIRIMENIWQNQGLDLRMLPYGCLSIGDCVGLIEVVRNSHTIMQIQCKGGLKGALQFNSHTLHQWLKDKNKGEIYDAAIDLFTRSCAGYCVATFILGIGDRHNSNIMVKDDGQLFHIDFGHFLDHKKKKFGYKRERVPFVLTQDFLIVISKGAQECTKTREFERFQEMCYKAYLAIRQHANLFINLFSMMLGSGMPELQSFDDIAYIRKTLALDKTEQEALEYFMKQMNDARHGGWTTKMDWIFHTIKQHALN
Chain of PI3K H1047R (P27986 whole entry partner): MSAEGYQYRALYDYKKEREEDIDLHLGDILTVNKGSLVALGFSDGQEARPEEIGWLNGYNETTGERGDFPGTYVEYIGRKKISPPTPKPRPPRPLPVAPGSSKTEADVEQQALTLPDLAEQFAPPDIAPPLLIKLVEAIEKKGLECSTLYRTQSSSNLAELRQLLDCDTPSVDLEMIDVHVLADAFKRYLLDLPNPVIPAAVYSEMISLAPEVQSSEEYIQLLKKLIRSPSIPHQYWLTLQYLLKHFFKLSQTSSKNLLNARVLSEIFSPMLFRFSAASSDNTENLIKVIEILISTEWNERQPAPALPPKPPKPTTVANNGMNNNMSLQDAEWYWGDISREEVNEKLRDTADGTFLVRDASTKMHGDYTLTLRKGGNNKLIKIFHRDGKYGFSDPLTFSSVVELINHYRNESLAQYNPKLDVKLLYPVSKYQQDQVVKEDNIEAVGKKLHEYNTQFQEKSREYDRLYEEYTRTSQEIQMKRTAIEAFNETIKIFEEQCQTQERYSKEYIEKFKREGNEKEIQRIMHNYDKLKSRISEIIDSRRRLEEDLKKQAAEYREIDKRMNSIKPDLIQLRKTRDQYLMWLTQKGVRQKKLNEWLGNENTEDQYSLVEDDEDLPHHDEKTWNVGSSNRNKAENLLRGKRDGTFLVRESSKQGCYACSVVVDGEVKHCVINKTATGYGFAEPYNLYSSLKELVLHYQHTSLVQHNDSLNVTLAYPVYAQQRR

T1 sequence (P42336 whole entry H1047R): as the sequence (P42336 whole entry H1047R) above
T1 sequence (P27986 whole entry partner): as the sequence (P27986 whole entry partner) above

By IC50 is commonly meant the concentration needed to halve the response being measured. As for `Cc1cc([C@@H](C)Nc2ccccc2C(=O)O)c2cc(-c3ccc(F)cc3)n(C)c(=O)c2c1` [Compound 76], in test [1], the “T47D pAKT S473 HTRF IC50 (H1047R): T47D (H1047R) selectivity over SKBR3 (WT)” value is on record as “A (A denotes >20-fold)” and the IC50 is less than 0.75 µM. Moreover, on PI3K H1047R, the “PI3K H1047R ADP-Glo (PI/PS) IC50: H1047R Selectivity” value is “A (A denotes >20-fold)” and the IC50 is less than 1 µM.

Consider `Cc1cc([C@H](C)Nc2ccccc2C(=O)O)c2cc(N3CCOCC3)ncc2c1` [Compound 58], for which the “T47D pAKT S473 HTRF IC50 (H1047R): T47D (H1047R) selectivity over SKBR3 (WT)” value in test [1] is listed as “C (C denotes ≤5-fold)”. For the same compound, the IC50 in test [1] is not below 2 µM; against PI3K H1047R, not below 10 µM.

`Cc1cc([C@H](C)Nc2ccccc2C(=O)O)c2nc(-c3ccc4c(c3)c(C)nn4C)n(C)c(=O)c2c1` (single isomer, unassigned) [Compound 33]: in test [1], the “T47D pAKT S473 HTRF IC50 (H1047R): T47D (H1047R) selectivity over SKBR3 (WT)” value is reported as “A (A denotes >20-fold)” and the IC50 was less than 0.75 µM. Further, on PI3K H1047R, the “PI3K H1047R ADP-Glo (PI/PS) IC50: H1047R Selectivity” value is “B (B denotes 20-fold≥value>5-fold)” and the IC50 is less than 1 µM.

With `Cc1cc(C(C)Nc2ccccc2C(=O)O)c2cc(OC3CCOCC3)ncc2c1` (stereo not shown) [Compound 74], in test [1], the “T47D pAKT S473 HTRF IC50 (H1047R): T47D (H1047R) selectivity over SKBR3 (WT)” value is reported as “A (A denotes >20-fold)” and the IC50 was less than 0.75 µM. Moreover, at PI3K H1047R, the “PI3K H1047R ADP-Glo (PI/PS) IC50: H1047R Selectivity” value is recorded as “A (A denotes >20-fold)” and the IC50 is less than 1 µM.

With `Cc1cc(C(C)Nc2ccccc2C(=O)O)c2cc(N3CCOCC3)ncc2c1` (stereo not shown) [Compound 37], in test [1], the “T47D pAKT S473 HTRF IC50 (H1047R): T47D (H1047R) selectivity over SKBR3 (WT)” value is listed as “A (A denotes >20-fold)” and the IC50 is less than 0.75 µM. Moreover, at PI3K H1047R, the “PI3K H1047R ADP-Glo (PI/PS) IC50: H1047R Selectivity” value is on record as “A (A denotes >20-fold)” and the IC50 was less than 1 µM.

As for `Cc1cc([C@@H](C)Nc2ccccc2C(=O)O)c2cc(N3CCOCC3)ncc2c1` [Compound 57], in test [1], the “T47D pAKT S473 HTRF IC50 (H1047R): T47D (H1047R) selectivity over SKBR3 (WT)” value is reported as “A (A denotes >20-fold)” and the IC50 was less than 0.75 µM. On PI3K H1047R, the “PI3K H1047R ADP-Glo (PI/PS) IC50: H1047R Selectivity” value is “A (A denotes >20-fold)” and the IC50 was less than 1 µM.

On to `Cc1cc([C@@H](C)Nc2ccccc2C(=O)O)c2cc(-c3ccnc(C4CC4)c3)n(C)c(=O)c2c1` [Compound 79], for which, in test [1], the “T47D pAKT S473 HTRF IC50 (H1047R): T47D (H1047R) selectivity over SKBR3 (WT)” value was “C (C denotes ≤5-fold)” and the IC50 was not below 2 µM. Further, the IC50 at PI3K H1047R is not below 10 µM.

With `Cc1cc([C@H](C)Nc2ccccc2C(=O)O)c2cc(-c3ccnc(C4CC4)c3)n(C)c(=O)c2c1` [Compound 78], in test [1], the “T47D pAKT S473 HTRF IC50 (H1047R): T47D (H1047R) selectivity over SKBR3 (WT)” value was “A (A denotes >20-fold)” and the half-maximal inhibitory concentration (IC50) is less than 0.75 µM. On PI3K H1047R, the “PI3K H1047R ADP-Glo (PI/PS) IC50: H1047R Selectivity” value was “A (A denotes >20-fold)” and the IC50 was less than 1 µM.

In the case of `Cc1cc(C(C)Nc2ccccc2C(=O)O)c2cc(-c3ccc(F)cc3)n(C)c(=O)c2c1` (stereo not shown) [Compound 77], in test [1], the “T47D pAKT S473 HTRF IC50 (H1047R): T47D (H1047R) selectivity over SKBR3 (WT)” value is reported as “A (A denotes >20-fold)” and the IC50 was less than 0.75 µM. Besides, on PI3K H1047R, the “PI3K H1047R ADP-Glo (PI/PS) IC50: H1047R Selectivity” value was “A (A denotes >20-fold)” and the IC50 was less than 1 µM.

`Cc1cc([C@@H](C)Nc2ccccc2C(=O)O)c2cc(-c3ccc4c(c3)c(C)nn4C)ncc2c1` [Compound 84]: in test [1], the “T47D pAKT S473 HTRF IC50 (H1047R): T47D (H1047R) selectivity over SKBR3 (WT)” value was “A (A denotes >20-fold)” and the IC50 was less than 0.75 µM. Besides, at PI3K H1047R, the “PI3K H1047R ADP-Glo (PI/PS) IC50: H1047R Selectivity” value was “A (A denotes >20-fold)” and the IC50 is less than 1 µM.

With `Cc1cc(C(C)Nc2ccccc2C(=O)O)c2[nH]c(N3CCOCC3)nc(=O)c2c1` (stereo not shown) [Compound 19], in test [1], the “T47D pAKT S473 HTRF IC50 (H1047R): T47D (H1047R) selectivity over SKBR3 (WT)” value is recorded as “B (B denotes 20-fold≥value>5-fold)” and the IC50 is 0.75 to 2 µM. For the same compound, at PI3K H1047R, the “PI3K H1047R ADP-Glo (PI/PS) IC50: H1047R Selectivity” value is reported as “B (B denotes 20-fold≥value>5-fold)” and the IC50 was 1 to 10 µM.

`Cc1cc(C(C)Nc2ccccc2C(=O)O)c2nc(-c3ccc4c(c3)c(C)nn4C)n(C)c(=O)c2c1` (stereo not shown) [Compound 40]: in test [1], the “T47D pAKT S473 HTRF IC50 (H1047R): T47D (H1047R) selectivity over SKBR3 (WT)” value is given as “A (A denotes >20-fold)” and the IC50 is less than 0.75 µM. In addition, on PI3K H1047R, the “PI3K H1047R ADP-Glo (PI/PS) IC50: H1047R Selectivity” value is “A (A denotes >20-fold)” and the IC50 was less than 1 µM.

`Cc1cc([C@H](C)Nc2ccccc2C(=O)O)c2cc(N3Cc4ccccc4C3)ncc2c1` [Compound 80]: in test [1], the “T47D pAKT S473 HTRF IC50 (H1047R): T47D (H1047R) selectivity over SKBR3 (WT)” value is given as “C (C denotes ≤5-fold)” and the IC50 was not below 2 µM. Also, the IC50 against PI3K H1047R is not below 10 µM.

With `Cc1cc([C@@H](C)Nc2ccccc2C(=O)O)c2nc(N3CCC(C)(C)CC3)ncc2c1` [Compound 8], in test [1], the “T47D pAKT S473 HTRF IC50 (H1047R): T47D (H1047R) selectivity over SKBR3 (WT)” value was “A (A denotes >20-fold)” and the concentration for half-maximal inhibition (IC50) was less than 0.75 µM. Besides, on PI3K H1047R, the “PI3K H1047R ADP-Glo (PI/PS) IC50: H1047R Selectivity” value is “B (B denotes 20-fold≥value>5-fold)” and the IC50 is less than 1 µM.

With `Cc1cc(C(C)Nc2ccccc2C(=O)O)c2nc(-c3ccncc3)nc(O)c2c1` (stereo not shown) [Compound 9, 2-((1-(4-hydroxy-6-methyl-2-(pyridin-4-yl)quinazolin-8-yl)ethyl)amino)benzoic acid], in test [1], the “T47D pAKT S473 HTRF IC50 (H1047R): T47D (H1047R) selectivity over SKBR3 (WT)” value is recorded as “B (B denotes 20-fold≥value>5-fold)” and the IC50 was less than 0.75 µM.
